Experimental data taken from PMC4537469 (Protein & Cell, 2015).

Legend:
RXRα [1] = target: T1, RXRα (Homo sapiens, UniProt P19793, R316E); test: mammalian one-hybrid reporter in MCF-7 cells ([…]); assay type: cell-based
T1 construct: gene RXRA; Gal4-DBD-RXRα-LBD
T1 sequence (P19793 223-462 R316E limits assumed): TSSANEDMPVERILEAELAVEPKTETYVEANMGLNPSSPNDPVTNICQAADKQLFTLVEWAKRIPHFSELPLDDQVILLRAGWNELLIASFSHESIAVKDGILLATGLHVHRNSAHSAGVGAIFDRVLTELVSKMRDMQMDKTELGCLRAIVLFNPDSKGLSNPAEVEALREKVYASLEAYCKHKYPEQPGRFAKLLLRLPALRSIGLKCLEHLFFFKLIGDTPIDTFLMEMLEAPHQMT

RXRα [2] = target: T1, RXRα; test: mammalian one-hybrid reporter in MCF-7 cells, antagonism of CD3254 (N-6 at […]); assay type: cell-based
RXRα [3] = target: T2, RXRα (Homo sapiens, UniProt P19793, W305A); test: SPR (BIAcore T200); assay type: binding
T2 construct: gene RXRA; RXRα-LBD
T2 sequence (P19793 223-462 W305A): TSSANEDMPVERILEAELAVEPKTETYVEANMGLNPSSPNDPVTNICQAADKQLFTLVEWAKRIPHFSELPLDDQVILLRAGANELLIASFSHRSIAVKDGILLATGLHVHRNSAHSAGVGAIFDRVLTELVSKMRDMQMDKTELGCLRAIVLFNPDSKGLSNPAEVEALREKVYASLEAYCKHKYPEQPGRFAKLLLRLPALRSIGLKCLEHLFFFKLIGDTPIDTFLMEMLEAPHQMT

RXRα [4] = target: T3, RXRα (Homo sapiens, UniProt P19793); test: SPR (BIAcore T200); also [3H]9-cis-RA competition (IC50 […]), fluorescence binding, TR-FRET coactivator assay (IC50 […])
T3 construct: gene RXRA; His-tagged human RXRα-LBD (223–462)
T3 sequence (P19793 223-462): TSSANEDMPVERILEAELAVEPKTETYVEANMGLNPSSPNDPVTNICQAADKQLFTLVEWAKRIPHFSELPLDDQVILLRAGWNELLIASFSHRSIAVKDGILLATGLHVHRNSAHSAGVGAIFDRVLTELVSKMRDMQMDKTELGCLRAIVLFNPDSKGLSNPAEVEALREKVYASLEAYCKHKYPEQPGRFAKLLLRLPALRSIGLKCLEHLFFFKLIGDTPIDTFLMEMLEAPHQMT

[5] = target: the molecule itself; test: native gel or EMSA; RXRα-LBD protein (2 mg/mL) incubated with DMSO, 10 μmol/L 9-cis-RA, 25 or 50 μmol/L N-6 for 3 h; 8% nondenaturing PAGE, Coomassie staining

## Cc1cc2c(cc1-c1cc(/C=C/C(=O)O)ccc1O)C(C)(C)CCC2(C)C [CD3254]
RXRα [1]
  mammalian one-hybrid reporter in MCF-7 cells (10^-7 mol/L): CD3254 was able to stimulate the transactivation of the mutant

## C/C(=N/O)c1sc(-n2nc(-c3ccccc3)cc2-c2ccccc2)nc1C [N-6, (NZ)-N-[1-[2-(3,5-diphenylpyrazol-1-yl)-4-methyl-1,3-thiazol-5-yl]ethylidene]droxylamine]
RXRα [2]
  mammalian one-hybrid reporter in MCF-7 cells, antagonism of CD3254 (N-6 at 10 μm): CD3254-induced transactivation of RXRα-LBD/R316E was potently inhibited by N-6
RXRα [3]
  Kd: 1000 µM
RXRα [4]
  Kd: 15.7 µM

B1: His-tagged human RXRα-LBD (223–462) (domain or fragment, UniProt P19793 223-462, looked up)
chain: TSSANEDMPVERILEAELAVEPKTETYVEANMGLNPSSPNDPVTNICQAADKQLFTLVEWAKRIPHFSELPLDDQVILLRAGWNELLIASFSHRSIAVKDGILLATGLHVHRNSAHSAGVGAIFDRVLTELVSKMRDMQMDKTELGCLRAIVLFNPDSKGLSNPAEVEALREKVYASLEAYCKHKYPEQPGRFAKLLLRLPALRSIGLKCLEHLFFFKLIGDTPIDTFLMEMLEAPHQMT
[5]
  stoichiometry N: 2
